Consider 25 compounds from ChEMBL document CHEMBL1123274, “Azasteroids: structure-activity relationships for inhibition of 5 alpha-reductase and of androgen receptor binding” (J Med Chem, 1986).

The target in the experiment is T1, Androgen receptor (Rattus norvegicus, UniProt P15207).
T1 sequence (P15207 whole entry): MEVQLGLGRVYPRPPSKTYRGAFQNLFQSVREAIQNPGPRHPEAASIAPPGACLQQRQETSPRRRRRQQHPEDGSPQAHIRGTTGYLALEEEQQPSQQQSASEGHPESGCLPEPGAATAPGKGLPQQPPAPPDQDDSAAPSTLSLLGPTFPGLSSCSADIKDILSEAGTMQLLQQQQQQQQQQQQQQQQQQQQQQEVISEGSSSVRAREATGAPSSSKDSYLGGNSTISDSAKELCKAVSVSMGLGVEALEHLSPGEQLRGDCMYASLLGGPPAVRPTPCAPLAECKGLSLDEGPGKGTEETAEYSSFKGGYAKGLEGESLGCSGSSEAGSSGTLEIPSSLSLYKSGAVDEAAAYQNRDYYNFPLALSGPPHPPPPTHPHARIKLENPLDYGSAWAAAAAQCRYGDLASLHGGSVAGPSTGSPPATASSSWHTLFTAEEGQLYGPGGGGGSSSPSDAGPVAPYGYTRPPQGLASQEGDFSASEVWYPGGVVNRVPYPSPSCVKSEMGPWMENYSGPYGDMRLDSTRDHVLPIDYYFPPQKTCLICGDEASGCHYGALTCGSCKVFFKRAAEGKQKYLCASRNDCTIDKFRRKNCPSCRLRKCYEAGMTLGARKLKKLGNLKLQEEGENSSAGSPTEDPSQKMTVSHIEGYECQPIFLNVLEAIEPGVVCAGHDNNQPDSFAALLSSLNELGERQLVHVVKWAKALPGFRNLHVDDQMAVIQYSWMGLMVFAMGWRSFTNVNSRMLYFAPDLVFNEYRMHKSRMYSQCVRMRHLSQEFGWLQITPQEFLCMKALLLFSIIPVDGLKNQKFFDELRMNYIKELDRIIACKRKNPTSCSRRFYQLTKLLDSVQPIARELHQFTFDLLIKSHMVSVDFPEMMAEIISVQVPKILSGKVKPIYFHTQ
Put plainly: In vitro antagonist activity against rat prostatic androgen receptor (AR).
`CC(=O)[C@H]1CC[C@H]2[C@@H]3CCC4=CC(=O)CC[C@]4(C)[C@H]3[C@H](O)C[C@]12C`: the 50% inhibitory concentration (IC50) – broadly, the concentration that inhibits the measured activity by half – worked out at 0.33 µM.

Consider `CCN(CC)C(=O)[C@H]1CC[C@H]2[C@@H]3CC[C@H]4N(C)C(=O)[C@@H]5O[C@@H]5[C@]4(C)[C@H]3CC[C@]12C`, for which the 50% inhibitory concentration (IC50) was 0.71 µM.

`CCN(CC)C(=O)[C@H]1CC[C@H]2[C@@H]3CC[C@H]4N(C)C(=O)[C@@H](OC)C[C@]4(C)[C@H]3CC[C@]12C` displayed an IC50 of more than 10 µM.

`CCN(CC)C(=O)[C@H]1CC[C@H]2[C@@H]3CC[C@H]4N(C)C(=O)[C@H](OC)C[C@]4(C)[C@H]3CC[C@]12C` came in with an IC50 of more than 10 µM.

The compound `C[C@]12CC[C@H]3[C@@H](CCC4NC(=O)CC[C@@]43C)[C@@H]1CC[C@@H]2C(N)=O` (stereo not given in full) showed an IC50 of more than 100 µM.

The compound `CN1C(=O)CC[C@@]2(C)C1CC[C@H]1[C@@H]3CC[C@H](C(=O)C=[N+]=[N-])[C@@]3(C)CC[C@@H]12` (stereo not given in full) came in with an IC50 of 0.58 µM.

Consider `CN1C(=O)CC[C@@]2(C)C1=CC[C@H]1[C@@H]3CC[C@H](O)[C@@]3(C)CC[C@@H]12`, for which the IC50 was found to be 0.0074 µM.

In the case of `CCN(CC)C(=O)[C@H]1CCC[C@H]2[C@@H]3CC[C@H]4N(C)C(=O)CC[C@]4(C)[C@H]3CC[C@]12C`, half-maximal inhibition (IC50) was put at 7.1 µM.

As for `CCN(CC)C(=O)[C@H]1CC[C@H]2[C@@H]3CC[C@H]4NC(=O)CCC[C@]4(C)[C@H]3CC[C@]12C`, the IC50 was more than 10 µM.

Regarding `CCCCCCCCNC(=O)[C@H]1CC[C@H]2[C@@H]3CCC4N(C)C(=O)C=C[C@]4(C)[C@H]3CC[C@]12C` (stereo not given in full), the IC50 stood at 0.34 µM.

In turn, `COC(=O)[C@H]1CC[C@H]2[C@@H]3CC[C@H]4N(C)C(=O)C=C[C@]4(C)[C@H]3CC[C@]12C` displayed an IC50 of 0.013 µM.

With `C[C@]12CC[C@H]3[C@@H](CCC4NC(=O)CC[C@@]43C)[C@@H]1CC[C@@H]2C(=O)c1ccc[nH]1` (stereo not given in full), it took 15 µM to reach half-maximal inhibition (IC50).

`CN1C(=O)CC[C@@]2(C)C1CC[C@H]1[C@@H]3CC[C@H](C(=O)c4ccc[nH]4)[C@@]3(C)CC[C@@H]12` (stereo not given in full): 0.089 µM corresponded to half-maximal inhibition (IC50).

Compound `C[C@]12CC[C@H]3[C@@H](CCC4NC(=O)C=C[C@@]43C)[C@@H]1CC[C@@H]2C(=O)c1ccc[nH]1` (stereo not given in full) showed an IC50 of 8 µM.

For the compound `CC(C(=O)O)[C@H]1CC[C@H]2[C@@H]3CCC4N(C)C(=O)C=C[C@]4(C)[C@H]3CC[C@]12C` (stereo not given in full), the IC50 was more than 100 µM.

`CC(C)CC(=O)[C@H]1CC[C@H]2[C@@H]3CCC4NC(=O)C=C[C@]4(C)[C@H]3CC[C@]12C` (stereo not given in full): the IC50 was more than 100 µM.

The compound `CC(C(=O)O)[C@H]1CC[C@H]2[C@@H]3CCC4NC(=O)C=C[C@]4(C)[C@H]3CC[C@]12C` (stereo not given in full) displayed a 50% inhibitory concentration (IC50) of more than 100 µM.

`CC(C)(C)CC(C)(C)NC(=O)[C@H]1CC[C@H]2[C@@H]3CCC4NC(=O)C=C[C@]4(C)[C@H]3CC[C@]12C` (stereo not given in full) returned an IC50 of more than 100 µM.

As to `CN1C(=O)C=C[C@]2(C)[C@H]3CC[C@]4(C)[C@@H](C(N)=O)CC[C@H]4[C@@H]3CC[C@@H]12`, the IC50 was 0.15 µM.

In turn, `CN1C(=O)C=C[C@]2(C)[C@H]3CC[C@]4(C)[C@@H](O)CC[C@H]4[C@@H]3CC[C@@H]12` gave an IC50 of 0.0024 µM.

`CCNC(=O)[C@H]1CC[C@H]2[C@@H]3CC[C@H]4NC(=O)C=C[C@]4(C)[C@H]3CC[C@]12C` showed an IC50 of more than 10 µM.

In turn, `CC(C)N(C(=O)[C@H]1CC[C@H]2[C@@H]3CC=C4N(C)C(=O)C=C[C@]4(C)[C@H]3CC[C@]12C)C(C)C` returned a concentration for half-maximal inhibition (IC50) of 6.4 µM.

Consider `C[C@]12C=CC(=O)N[C@@H]1CC[C@@H]1[C@@H]2CC[C@]2(C)[C@@H](C(N)=O)CC[C@@H]12`, for which the IC50 was more than 10 µM.

Turning to `COC(=O)[C@H]1CC[C@H]2[C@@H]3CC[C@H]4NC(=O)C=C[C@]4(C)[C@H]3CC[C@]12C`, the half-inhibitory concentration (IC50) was 3.2 µM.

As to `C[C@]12C=CC(=O)N[C@@H]1CC[C@@H]1[C@@H]2CC[C@]2(C)[C@@H](O)CC[C@@H]12`, half-maximal inhibition (IC50) required 0.17 µM.
